Assay results published in ChEMBL document CHEMBL1687752, “Impact of antifungal prophylaxis on colonization and azole susceptibility of Candida species” (2009).
In brackets after ≈: the same amount, converted by molar mass.

Columns and labels:
Format in all cases: functional
Nakaseomyces glabratus [1] = assay: Antifungal activity against 42 days cultured Candida glabrata isolated from neutropenic subject with AML or MDS stool after 48 days of prophylaxis by broth microdilution method
Nakaseomyces glabratus [2] = assay: Antifungal activity against 19 days cultured Candida glabrata isolated from HSCT recipient with acute or chronic GVHD mouth after 17 days of prophylaxis by broth microdilution method
Pichia kudriavzevii [3] = assay: Antifungal activity against 8 days cultured Candida krusei isolated from neutropenic subject with AML or MDS pharynx after 12 days of prophylaxis by broth microdilution method
Pichia kudriavzevii [4] = assay: Antifungal activity against 13 days cultured Candida krusei isolated from invasive fungal infected subject blood after 12 days of prophylaxis by broth microdilution method
Nakaseomyces glabratus [5] = assay: Antifungal activity against 35 days cultured Candida glabrata isolated from HSCT recipient with acute or chronic GVHD mouth receiving antifungal therapy for 165 days after 138 days of prophylaxis by broth microdilution method
Nakaseomyces glabratus [6] = assay: Antifungal activity against 25 days cultured Candida glabrata isolated from invasive fungal infected subject blood receiving antifungal therapy for 25 days after 3 days of prophylaxis by broth microdilution method
Nakaseomyces glabratus [7] = assay: Antifungal activity against 7 days cultured Candida glabrata isolated from neutropenic subject with AML or MDS stool receiving antifungal therapy for 37 days after 9 days of prophylaxis by broth microdilution method
Candida tropicalis [8] = assay: Antifungal activity against -3 days cultured Candida tropicalis isolated from neutropenic subject with AML or MDS pharynx receiving antifungal therapy for 45 days after 24 days of prophylaxis by broth microdilution method
Candida tropicalis [9] = assay: Antifungal activity against 2 days cultured Candida tropicalis isolated from neutropenic subject with AML or MDS stool receiving antifungal therapy for 45 days after 24 days of prophylaxis by broth microdilution method
Nakaseomyces glabratus [10] = assay: Antifungal activity against 16 days cultured Candida glabrata isolated from HSCT recipient with acute or chronic GVHD mouth receiving antifungal therapy for 31 days after 28 days of prophylaxis by broth microdilution method
Nakaseomyces glabratus [11] = assay: Antifungal activity against 31 days cultured Candida glabrata isolated from HSCT recipient with acute or chronic GVHD mouth receiving antifungal therapy for 31 days after 28 days of prophylaxis by broth microdilution method
Nakaseomyces glabratus [12] = assay: Antifungal activity against 62 days cultured Candida glabrata isolated from HSCT recipient with acute or chronic GVHD mouth receiving antifungal therapy for 143 days after 116 days of prophylaxis by broth microdilution method
Nakaseomyces glabratus [13] = assay: Antifungal activity against 43 days cultured Candida glabrata isolated from HSCT recipient with acute or chronic GVHD mouth receiving antifungal therapy for 168 days after 113 days of prophylaxis by broth microdilution method
Nakaseomyces glabratus [14] = assay: Antifungal activity against -2 days cultured Candida glabrata isolated from HSCT recipient with acute or chronic GVHD mouth receiving antifungal therapy for 172 days after 114 days of prophylaxis by broth microdilution method
Pichia kudriavzevii [15] = assay: Antifungal activity against 1 day cultured Candida krusei isolated from neutropenic subject with AML or MDS pharynx receiving antifungal therapy for 19 days after 6 days of prophylaxis by broth microdilution method
Pichia kudriavzevii [16] = assay: Antifungal activity against 6 days cultured Candida krusei isolated from neutropenic subject with AML or MDS stool receiving antifungal therapy for 19 days after 6 days of prophylaxis by broth microdilution method
Candida albicans [17] = assay: Antifungal activity against Candida albicans isolated from HSCT recipients with acute or chronic GVHD prior to initiation of posaconazole therapy assessed as maximum MIC by broth microdilution method
Candida albicans [18] = assay: Antifungal activity against Candida albicans isolated from HSCT recipients with acute or chronic GVHD receiving posaconazole assessed as maximum MIC by broth microdilution method
Candida albicans [19] = assay: Antifungal activity against Candida albicans isolated from neutropenic subjects with AML or MDS prior to initiation of posaconazole therapy by broth microdilution method
Candida albicans [20] = assay: Antifungal activity against Candida albicans isolated from neutropenic subjects with AML or MDS receiving posaconazole by broth microdilution method
Candida albicans [21] = assay: Antifungal activity against Candida albicans isolated from HSCT recipients with acute or chronic GVHD prior to initiation of fluconazole therapy by broth microdilution method
Nakaseomyces glabratus [22] = assay: Antifungal activity against Candida glabrata isolated from HSCT recipients with acute or chronic GVHD receiving fluconazole by broth microdilution method
Nakaseomyces glabratus [23] = assay: Antifungal activity against Candida glabrata isolated from HSCT recipients with acute or chronic GVHD prior to initiation of fluconazole therapy assessed as maximum MIC by broth microdilution method
Nakaseomyces glabratus [24] = assay: Antifungal activity against Candida glabrata isolated from HSCT recipients with acute or chronic GVHD receiving fluconazole assessed as maximum MIC by broth microdilution method
Candida albicans [25] = assay: Antifungal activity against Candida albicans isolated from neutropenic subjects with AML or MDS prior to initiation of fluconazole therapy by broth microdilution method
Candida albicans [26] = assay: Antifungal activity against Candida albicans isolated from neutropenic subjects with AML or MDS prior to initiation of fluconazole therapy assessed as maximum MIC by broth microdilution method
Pichia kudriavzevii [27] = assay: Antifungal activity against Candida krusei isolated from neutropenic subjects with AML or MDS prior to initiation of fluconazole therapy assessed as maximum MIC by broth microdilution method
Candida albicans [28] = assay: Antifungal activity against Candida albicans isolated from HSCT recipient 262 with acute or chronic GVHD mouth receiving antifungal drug after 115 days prophylaxis by broth microdilution method
Nakaseomyces glabratus [29] = assay: Antifungal activity against Candida glabrata isolated from neutropenic subject 1102 with AML or MDS stool receiving antifungal drug after 26 days prophylaxis by broth microdilution method; conditions: 624 h
Nakaseomyces glabratus [30] = assay: Antifungal activity against Candida glabrata isolated from neutropenic subject 1497 with AML or MDS pharynx receiving antifungal drug after 61 days prophylaxis by broth microdilution method
Nakaseomyces glabratus [31] = assay: Antifungal activity against Candida glabrata isolated from HSCT recipient 186 with acute or chronic GVHD mouth after 112 days prophylaxis by broth microdilution method
Nakaseomyces glabratus [32] = assay: Antifungal activity against Candida glabrata isolated from HSCT recipient 186 with acute or chronic GVHD mouth receiving antifungal drug after 112 days prophylaxis by broth microdilution method
Nakaseomyces glabratus [33] = assay: Antifungal activity against Candida glabrata isolated from HSCT recipient 975 with acute or chronic GVHD mouth receiving antifungal drug after 112 days prophylaxis by broth microdilution method
Saccharomyces cerevisiae = assay: Antifungal activity against Saccharomyces cerevisiae isolated from HSCT recipient 513 with acute or chronic GVHD mouth after 112 days prophylaxis by broth microdilution method
Candida albicans [34] = assay: Antifungal activity against Candida albicans isolated from HSCT recipient 031 with acute or chronic GVHD mouth after 109 days prophylaxis by broth microdilution method
Nakaseomyces glabratus [35] = assay: Antifungal activity against Candida glabrata isolated from HSCT recipient 002 with acute or chronic GVHD mouth receiving antifungal drug after 116 days prophylaxis by broth microdilution method
Nakaseomyces glabratus [36] = assay: Antifungal activity against Candida glabrata isolated from HSCT recipient 497 with acute or chronic GVHD mouth after 114 days prophylaxis by broth microdilution method
Nakaseomyces glabratus [37] = assay: Antifungal activity against Candida glabrata isolated from HSCT recipient 807 with acute or chronic GVHD mouth after 114 days prophylaxis by broth microdilution method
Nakaseomyces glabratus [38] = assay: Antifungal activity against Candida glabrata isolated from HSCT recipient 491 with acute or chronic GVHD mouth receiving antifungal drug after 112 days prophylaxis by broth microdilution method

Structure (SMILES): CCC(C)n1ncn(-c2ccc(N3CCN(c4ccc(OCC5COC(Cn6cncn6)(c6ccc(Cl)cc6Cl)O5)cc4)CC3)cc2)c1=O (centres undefined) [ITRACONAZOLE]
- MIC (Nakaseomyces glabratus [1]): 1 µg/mL (≈ 1.42 µM)
- MIC (Nakaseomyces glabratus [2]): > 8 µg/mL
- MIC (Pichia kudriavzevii [3]): 0.25 µg/mL (≈ 0.354 µM)
- MIC (Pichia kudriavzevii [4]): 0.25 µg/mL (≈ 0.354 µM)
- MIC (Nakaseomyces glabratus [5]): 8 µg/mL (≈ 11.3 µM)
- MIC (Nakaseomyces glabratus [6]): 2 µg/mL (≈ 2.83 µM)
- MIC (Nakaseomyces glabratus [7]): 1 µg/mL (≈ 1.42 µM)
- MIC (Candida tropicalis [8]): 0.03 µg/mL (≈ 0.0425 µM)
- MIC (Candida tropicalis [9]): < 0.015 µg/mL
- MIC (Nakaseomyces glabratus [10]): < 1 µg/mL
- MIC (Nakaseomyces glabratus [11]): < 1 µg/mL
- MIC (Nakaseomyces glabratus [12]): 8 µg/mL (≈ 11.3 µM)
- MIC (Nakaseomyces glabratus [13]): 2 µg/mL (≈ 2.83 µM)
- MIC (Nakaseomyces glabratus [14]): 1 µg/mL (≈ 1.42 µM)
- MIC (Pichia kudriavzevii [15]): 0.125 µg/mL (≈ 0.177 µM)
- MIC (Pichia kudriavzevii [16]): 0.5 µg/mL (≈ 0.709 µM)
- MIC (Candida albicans [17]): 16 µg/mL
- MIC (Candida albicans [18]): 0.25 µg/mL
- MIC50 (Candida albicans [19]): 0.015 µg/mL (≈ 0.0213 µM)
- MIC90 (Candida albicans [19]): 0.03 µg/mL (≈ 0.0425 µM)
- MIC50 (Candida albicans [20]): 0.015 µg/mL (≈ 0.0213 µM)
- MIC90 (Candida albicans [20]): 0.03 µg/mL (≈ 0.0425 µM)
- MIC50 (Candida albicans [21]): 0.03 µg/mL (≈ 0.0425 µM)
- MIC90 (Candida albicans [21]): 0.06 µg/mL (≈ 0.085 µM)
- MIC50 (Nakaseomyces glabratus [22]): 1 µg/mL (≈ 1.42 µM)
- MIC90 (Nakaseomyces glabratus [22]): 16 µg/mL (≈ 22.7 µM)
- MIC (Nakaseomyces glabratus [23]): 32 µg/mL
- MIC (Nakaseomyces glabratus [24]): 32 µg/mL
- MIC50 (Candida albicans [25]): 0.015 µg/mL (≈ 0.0213 µM)
- MIC90 (Candida albicans [25]): 0.015 µg/mL (≈ 0.0213 µM)
- MIC (Candida albicans [26]): 0.125 µg/mL
- MIC (Pichia kudriavzevii [27]): 0.5 µg/mL
- MIC (Candida albicans [28]): 0.06 µg/mL (≈ 0.085 µM)
- MIC (Nakaseomyces glabratus [29]): > 8 µg/mL
- MIC (Nakaseomyces glabratus [30]): 8 µg/mL (≈ 11.3 µM)
- MIC (Nakaseomyces glabratus [31]): 0.5 µg/mL (≈ 0.709 µM)
- MIC (Nakaseomyces glabratus [32]): 2 µg/mL (≈ 2.83 µM)
- MIC (Nakaseomyces glabratus [33]): 8 µg/mL (≈ 11.3 µM)
- MIC (Saccharomyces cerevisiae): 0.5 µg/mL (≈ 0.709 µM)
- MIC (Candida albicans [34]): 0.03 µg/mL (≈ 0.0425 µM)
- MIC (Nakaseomyces glabratus [35]): > 8 µg/mL
- MIC (Nakaseomyces glabratus [36]): 1 µg/mL (≈ 1.42 µM)
- MIC (Nakaseomyces glabratus [37]): 0.5 µg/mL (≈ 0.709 µM)
- MIC (Nakaseomyces glabratus [38]): 2 µg/mL (≈ 2.83 µM)
